Where a name gives a salt, the structure may show the parent alone.
Columns and labels:
[1] = target: T1, human MCH-1 receptor (Homo sapiens, UniProt Q99705); test: Ca2+ mobilization experiment for the MCH-1 receptor (FLIPR), inhibition of MCH-induced Ca2+ mobilization; format: cell-based; conditions: CHO cells stably expressing human MCH-1 receptor, inhibition of MCH-induced Ca2+ response, read-out: MCH-1 pIC50 (converted)
T1 construct: expressed in transfected cells
Method in brief: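 Calcium-dye loading (kit with probenecid) of CHO cells stably expressing human MCH-1 ran 90 min at 37C. Cells were then preincubated with compound for 20 min at RT before a submaximal MCH challenge, and Ca2+ was recorded by FLIPR. Responses were expressed as % of compound-free response, and pIC50 came from sigmoidal fits.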

[2] = target: T2, MCH-1 receptor (Rattus norvegicus, UniProt P97639); conditions: rodents tests; Nat. Med. (2002) 8, 825-830; cited from earlier work
T2 construct: host or cells: rodents in vivo
T2 sequence (P97639 whole entry): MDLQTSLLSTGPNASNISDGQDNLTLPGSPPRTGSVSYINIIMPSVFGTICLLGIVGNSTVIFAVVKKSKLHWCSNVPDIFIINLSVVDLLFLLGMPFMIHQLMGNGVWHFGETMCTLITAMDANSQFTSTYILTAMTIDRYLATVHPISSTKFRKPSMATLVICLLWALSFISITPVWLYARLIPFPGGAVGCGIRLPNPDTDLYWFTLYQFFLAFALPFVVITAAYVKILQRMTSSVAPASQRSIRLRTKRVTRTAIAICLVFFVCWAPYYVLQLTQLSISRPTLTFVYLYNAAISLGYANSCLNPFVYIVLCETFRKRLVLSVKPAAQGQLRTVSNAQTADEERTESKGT

T1 sequence (Q99705 whole entry): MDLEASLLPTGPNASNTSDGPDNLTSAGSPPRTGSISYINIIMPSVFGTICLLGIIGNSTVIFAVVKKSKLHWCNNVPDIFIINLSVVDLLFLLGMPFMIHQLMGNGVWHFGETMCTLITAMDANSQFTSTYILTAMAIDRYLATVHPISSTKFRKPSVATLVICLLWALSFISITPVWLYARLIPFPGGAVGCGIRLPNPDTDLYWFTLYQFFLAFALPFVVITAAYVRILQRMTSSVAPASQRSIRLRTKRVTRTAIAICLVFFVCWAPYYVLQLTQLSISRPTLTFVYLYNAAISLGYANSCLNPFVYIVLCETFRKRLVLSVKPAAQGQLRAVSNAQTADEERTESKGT

| Structure (SMILES) | melting point | IC50 [1] | antidepressant- and anxiolytic-like effects [2] |
| --- | --- | --- | --- |
| COc1cc(-n2ccnc(SCCc3ccccc3)c2=O)ccc1OCCN1CCCC1 [2-11] | 79.4 °C | 20 nM | – |
| COc1cc(-n2ccnc(NCCc3ccccc3)c2=O)ccc1OC1CCNC1 (centres unmarked) [3-31] | 151.6 °C | 39.8 nM | – |
| CC(=O)N(C)CCOc1ccc(-n2ccnc(NCCOc3ccccc3)c2=O)cc1 [1-30] | 105.9 °C | 501 nM | – |
| COc1cc(-n2ccnc(SCCc3ccccc3)c2=O)ccc1N1CCC(N(C)C)C1 (centres unmarked) [6-07] | 126.5 °C | 20 nM | – |
| COCC1=C(C(=O)OC)[C@H](c2ccc(F)c(F)c2)N(C(=O)NCCCN2CCC(c3cccc(NC(C)=O)c3)CC2)C(=O)N1 [SNAP-7941] | – | – | antidepressant- and axiolytic-like affects |
| CNC1CCN(c2ccc(-n3ccnc(SCCc4ccccc4)c3=O)cc2OC)C1 (centres unmarked) [6-04] | 113.2 °C | 25.1 nM | – |
| CN(CCO)CCOc1ccc(-n2ccnc(NCCOc3ccccc3)c2=O)cc1 [1-26] | 103.6 °C | 251 nM | – |
| O=c1c(NCCc2ccccc2)nccn1-c1ccc(OCCN2CCCC2)c(Cl)c1 [2-03] | 120.2 °C | 31.6 nM | – |
| O=c1c(NCCOc2ccccc2)nccn1-c1ccc(OCCN2CCOCC2)cc1 [1-44] | 138.1 °C | 501 nM | – |
| O=c1c(NCCc2ccccc2)nccn1CCc1ccc(CN2CCCC2)cc1 [9-01] | 177 °C | 20 nM | – |
| CC(=O)N1CCN(CCOc2ccc(-n3ccnc(NCCc4ccccc4)c3=O)cc2Cl)CC1 [3-83] | 121.8 °C | 50.1 nM | – |
| COc1cc(-n2ccnc(NCCc3ccccc3)c2=O)ccc1N1CCC(N2CCOCC2)C1 (centres unmarked) [3-21] | > 300 °C | 79.4 nM | – |
| COc1cc(-n2ccnc(SCCc3ccccc3)c2=O)ccc1N1CCC(N(C)C(C)=O)C1 (centres unmarked) [6-08] | 105.5 °C | 31.6 nM | – |
| O=c1c(NCCc2ccccc2)nccn1-c1ccc(OCCN2CCC(O)CC2)c(Cl)c1 [3-81] | 151.2 °C | 25.1 nM | – |
| COc1cc(-n2ccnc(NCCc3ccccc3)c2=O)ccc1NCCCN1CCOCC1 [3-30] | > 300 °C | 63.1 nM | – |
| COc1cc(-n2ccnc(NCCOc3ccccc3)c2=O)ccc1OCCN1CCC(F)CC1 (as salt: HCl) [1-70] | 234.9 °C | – | – |
| COc1cc(-n2ccnc(NCCOc3ccccc3)c2=O)ccc1OCCN1CCCC1 (as salt: HCl) [1-67] | 198.7 °C | – | – |
| COc1cc(-n2ccnc(NCCc3ccccc3)c2=O)ccc1OCCN1CCCC1 [2-04] | 101.1 °C | 39.8 nM | – |
| COc1cc(-n2ccnc(SCCc3ccccc3)c2=O)ccc1NC(=O)CN1CCCC1 [6-18] | > 300 °C | 316 nM | – |

From patent US8329704B2, “Substituted pyrazinone derivatives for use in MCH-1 mediated diseases” (Janssen Pharmaceutica, N.V., priority 2005, dated 2012)
